One test concerns A-431 [B-Raf wildtype]. In words: Anti-proliferative activity, SRB assay, 72 hours. The following applies: Homo sapiens, read-out: CELLULAR IC50 [μM] A-431 [B-Raf wildtype]. In kind it is cell-based. The procedure: (§1) Cells were exposed to the test compounds at various concentrations appropriate to determine an IC50, for 72 hours, and cell proliferation was measured using the SRB assay according to Shekan et al (J Natl Cancer Inst (1990) 82, 1107-112) in order to estimate the IC50 values shown in Table 3.
(§2) Briefly, cells were plated in 96 well dishes 24 hours prior to compound addition at the densities specified in Table 11.1.
(§3) The assay was terminated with the addition of ice cold 10% TCA after growth medium has been removed and the plates were incubated over night at 4° C. The plates were then washed 5 times with water and 100 μl of a Sulforhodamine B solution ([…]) was added to each well. The plates were then incubated for 10 minutes at room temperature before removal of unbound dye by washing with 1% acetic acid. The bound dye was solubilized with 10 mM Trizma base and the absorbance read at OD520.
(§4) Inhibitory activity of the compounds was calculated as % inhibition of cell proliferation compared to cells treated with the solvent (DMSO).
(In general: Sulforhodamine B stains cellular protein and so reports cell mass.)

Test [1] deals with HT-29 [B-Raf V600E mutant]. In words: Anti-proliferative activity, SRB assay, 72 hours. In kind it is cell-based. The following applies: Homo sapiens, read-out: CELLULAR IC50 [μM] HT-29 [B-Raf V600E mutant]. The procedure:
We observed the surprising finding that compounds of the invention were useful in inhibiting proliferation of HT-29 tumor cells (see Table 3).
as §1, §2, §3, §4

One may read the IC50 as the point on the concentration scale where inhibition reaches its midpoint.

For `COn1c(=O)c(-c2cc(NC(=O)c3ccc(Cl)c(C(F)(F)F)c3)ccc2Cl)cc2cnc(NCCN(C)C)nc21` [Compound 3, 4-Chloro-N-{4-chloro-3-[2-(2-dimethylamino-ethylamino)-8-methoxy-7-oxo-7,8-dihydro-pyrido[2,3-d]pyrimidin-6-yl]-phenyl}-3-trifluoromethyl-benzamide], the 50% inhibitory concentration (IC50) with A-431 [B-Raf wildtype] was > 10 µM; in test [1] it was < 5 µM.

`COn1c(=O)c(-c2ccc(NC(=O)c3ccc(Cl)c(C(F)(F)F)c3)cc2Cl)cc2cnc(NCCN(C)C)nc21` [Compound 6, 4-Chloro-N-{3-chloro-4-[2-(2-dimethylamino-ethylamino)-8-methoxy-7-oxo-7,8-dihydro-pyrido[2,3-d]pyrimidin-6-yl]-phenyl}-3-trifluoromethyl-benzamide]: the IC50 in the test on A-431 [B-Raf wildtype] is < 10 µM; in test [1], < 5 µM.

In the case of `COn1c(=O)c(-c2cc(NC(=O)c3cc(Cl)nc(Cl)c3)ccc2Cl)cc2cnc(NCCN(C)C)nc21` [Compound 7, 2,6-Dichloro-N-(4-chloro-3-(2-(2-(dimethylamino)ethylamino)-8-methoxy-7-oxo-7,8-dihydropyrido[2,3-d]pyrimidin-6-yl)phenyl)-isonicotinamide], the IC50 with A-431 [B-Raf wildtype] was > 10 µM; in test [1], < 10 µM.

As for `COn1c(=O)c(-c2cc(NC(=O)c3cc(C(C)(C)C)n[nH]3)ccc2Cl)cc2cnc(NCCN(C)C)nc21` [Compound 9, 5-tert-Butyl-2H-pyrazole-3-carboxylic acid {4-chloro-3-[2-(2-dimethylamino-ethylamino)-8-methoxy-7-oxo-7,8-dihydro-pyrido[2,3-d]pyrimidin-6-yl]-phenyl}-amide], the IC50 (in the test with A-431 [B-Raf wildtype]; in test [1]) was > 10 µM in each case.

Take `COn1c(=O)c(-c2cc(NC(=O)c3ccc(C(F)(F)F)c(F)c3)ccc2Cl)cc2cnc(NCCN(C)C)nc21` [Compound 12, N-{4-Chloro-3-[2-(2-dimethylamino-ethylamino)-8-methoxy-7-oxo-7,8-dihydro-pyrido[2,3-d]pyrimidin-6-yl]-phenyl}-3-fluoro-4-trifluoromethyl-benzamide]: the values for the IC50 (in the test with A-431 [B-Raf wildtype]; in test [1]) were > 10 µM and < 10 µM, respectively.

In the case of `COn1c(=O)c(-c2cc(NC(=O)c3cc4ccccc4n3C)ccc2Cl)cc2cnc(NCCN(C)C)nc21` [Compound 13, 1-Methyl-1H-indole-2-carboxylic acid {4-chloro-3-[2-(2-dimethylamino-ethylamino)-8-methoxy-7-oxo-7,8-dihydro-pyrido[2,3-d]pyrimidin-6-yl]-phenyl}-amide], the IC50 in the test on A-431 [B-Raf wildtype] was > 10 µM; in test [1] it was < 10 µM.

With `COc1ccc(C(F)(F)F)cc1C(=O)Nc1ccc(Cl)c(-c2cc3cnc(NCCN(C)C)nc3n(OC)c2=O)c1` [Compound 14, N-{4-Chloro-3-[2-(2-dimethylamino-ethylamino)-8-methoxy-7-oxo-7,8-dihydro-pyrido[2,3-d]pyrimidin-6-yl]-phenyl}-2-methoxy-5-trifluoromethyl-benzamide], the IC50 was > 10 µM in the test with A-431 [B-Raf wildtype] and < 5 µM in test [1].

On to `COc1cc(C(F)(F)F)ccc1C(=O)Nc1ccc(Cl)c(-c2cc3cnc(NCCN(C)C)nc3n(OC)c2=O)c1` [Compound 15, N-{4-Chloro-3-[2-(2-dimethylamino-ethylamino)-8-methoxy-7-oxo-7,8-dihydro-pyrido[2,3-d]pyrimidin-6-yl]-phenyl}-2-methoxy-4-trifluoromethyl-benzamide], for which the 50% inhibitory concentration (IC50) is > 10 µM in the test with A-431 [B-Raf wildtype] and < 5 µM in test [1].

With `COn1c(=O)c(-c2cc(NC(=O)c3ccc(C(F)(F)F)cc3F)ccc2Cl)cc2cnc(NCCN(C)C)nc21` [Compound 20], the half-maximal inhibitory concentration (IC50) (in the test on A-431 [B-Raf wildtype]; in test [1]) was > 10 µM each time.

For the compound `COc1ccc(C(=O)Nc2ccc(Cl)c(-c3cc4cnc(NCCN(C)C)nc4n(OC)c3=O)c2)cc1Cl` [Compound 21, 3-Chloro-N-{4-chloro-3-[2-(2-dimethylamino-ethylamino)-8-methoxy-7-oxo-7,8-dihydro-pyrido[2,3-d]pyrimidin-6-yl]-phenyl}-4-methoxy-benzamide], the IC50 was > 10 µM in the test with A-431 [B-Raf wildtype] and < 5 µM in test [1].

`COn1c(=O)c(-c2cc(NC(=O)c3cc(Cl)cc(Cl)c3)ccc2Cl)cc2cnc(NCCN(C)C)nc21` [Compound 22, 3,5-Dichloro-N-{4-chloro-3-[2-(2-dimethylamino-ethylamino)-8-methoxy-7-oxo-7,8-dihydro-pyrido[2,3-d]pyrimidin-6-yl]-phenyl}-benzamide]: the 50% inhibitory concentration (IC50) in the test with A-431 [B-Raf wildtype] is > 10 µM; in test [1], < 5 µM.

With `COn1c(=O)c(-c2cc(NC(=O)Cc3cccc(C(F)(F)F)c3)ccc2Cl)cc2cnc(NCCN(C)C)nc21` [Compound 25, N-{4-Chloro-3-[2-(2-dimethylamino-ethylamino)-8-methoxy-7-oxo-7,8-dihydro-pyrido[2,3-d]pyrimidin-6-yl]-phenyl}-2-(3-trifluoromethyl-phenyl)-acetamide], the IC50 with A-431 [B-Raf wildtype] is > 10 µM; in test [1] it was < 5 µM.

For the compound `COn1c(=O)c(-c2cc(NC(=O)c3cc(C(F)(F)F)ccc3Cl)ccc2Cl)cc2cnc(NCCN(C)C)nc21` [Compound 29, 2-Chloro-N-{4-chloro-3-[2-(2-dimethylamino-ethylamino)-8-methoxy-7-oxo-7,8-dihydro-pyrido[2,3,-d]pyrimidin-6-yl]-phenyl}-5-trifluoromethyl-benzamide], the IC50 in the test with A-431 [B-Raf wildtype] is > 10 µM; in test [1] it was < 10 µM.

Regarding `COn1c(=O)c(-c2cc(NC(=O)c3ccccc3)ccc2Cl)cc2cnc(NCCN(C)C)nc21` [Compound 33, N-{4-Chloro-3-[2-(2-dimethylamino-ethylamino)-8-methoxy-7-oxo-7,8-dihydro-pyrido[2,3-d]pyrimidin-6-yl]-phenyl}-benzamide], the half-maximal inhibitory concentration (IC50) (in the test on A-431 [B-Raf wildtype]; in test [1]) was > 10 µM in each case.

Consider `COn1c(=O)c(-c2cc(NC(=O)c3ccc(C(F)(F)F)cc3)ccc2Cl)cc2cnc(NCCN(C)C)nc21` [Compound 34, N-{4-Chloro-3-[2-(2-dimethylamino-ethylamino)-8-methoxy-7-oxo-7,8-dihydro-pyrido[2,3-d]pyrimidin-6-yl]-phenyl}-4-trifluoromethyl-benzamide], for which the 50% inhibitory concentration (IC50) is > 10 µM in the test on A-431 [B-Raf wildtype] and < 10 µM in test [1].

Turning to `COn1c(=O)c(-c2cc(NC(=O)c3cc(C(F)(F)F)cc(C(F)(F)F)c3)ccc2Cl)cc2cnc(NCCN(C)C)nc21` [Compound 35, N-{4-Chloro-3-[2-(2-dimethylamino-ethylamino)-8-methoxy-7-oxo-7,8-dihydro-pyrido[2,3-d]pyrimidin-6-yl]-phenyl}-3,5-bis-trifluoromethyl-benzamide], the IC50 is > 10 µM in the test with A-431 [B-Raf wildtype] and < 5 µM in test [1].

Turning to `COn1c(=O)c(-c2cc(NC(=O)c3ccccc3Cl)ccc2Cl)cc2cnc(NCCN(C)C)nc21` [Compound 36, 2-Chloro-N-{4-chloro-3-[2-(2-dimethylamino-ethylamino)-8-methoxy-7-oxo-7,8-dihydro-pyrido[2,3-d]pyrimidin-6-yl]-phenyl}-benzamide], the IC50 (with A-431 [B-Raf wildtype]; in test [1]) was > 10 µM throughout.

Regarding `COn1c(=O)c(-c2cc(NC(=O)c3ccc(Cl)cc3)ccc2Cl)cc2cnc(NCCN(C)C)nc21` [Compound 38, 4-Chloro-N-{4-chloro-3-[2-(2-dimethylamino-ethylamino)-8-methoxy-7-oxo-7,8-dihydro-pyrido[2,3-d]pyrimidin-6-yl]-phenyl}-benzamide], the IC50 (with A-431 [B-Raf wildtype]; in test [1]) was > 10 µM each time.

In the case of `COn1c(=O)c(-c2cc(NC(=O)c3nc4ccc(F)cc4[nH]3)ccc2Cl)cc2cnc(NCCN(C)C)nc21` [Compound 40, 6-Fluoro-1H-benzoimidazole-2-carboxylic acid {4-chloro-3-[2-(2-dimethylamino-ethylamino)-8-methoxy-7-oxo-7,8-dihydro-pyrido[2,3-d]pyrimidin-6-yl]-phenyl}-amide], the IC50 (with A-431 [B-Raf wildtype]; in test [1]) was > 10 µM in each case.

As for `COn1c(=O)c(-c2cc(NC(=O)Nc3ccc(Oc4ccccc4)cc3)ccc2Cl)cc2cnc(NCCN(C)C)nc21` [Compound 45, 1-{4-Chloro-3-[2-(2-dimethylamino-ethylamino)-8-methoxy-7-oxo-7,8-dihydro-pyrido[2,3-d]pyrimidin-6-yl]-phenyl}-3-(4-phenoxy-phenyl)-urea], the IC50 in the test on A-431 [B-Raf wildtype] is < 10 µM; in test [1] it was < 5 µM.

For `COn1c(=O)c(-c2cc(NC(=O)Nc3ccc(Cl)cc3)ccc2Cl)cc2cnc(NCCN(C)C)nc21` [Compound 46, 1-{4-Chloro-3-[2-(2-dimethylamino-ethylamino)-8-methoxy-7-oxo-7,8-dihydro-pyrido[2,3-d]pyrimidin-6-yl]-phenyl}-3-(4-chloro-phenyl)-urea], the 50% inhibitory concentration (IC50) with A-431 [B-Raf wildtype] was > 10 µM; in test [1], < 5 µM.

`COn1c(=O)c(-c2cc(NC(=O)Nc3cccc(C(F)(F)F)c3F)ccc2Cl)cc2cnc(NCCN(C)C)nc21` [Compound 48, 1-{4-Chloro-3-[2-(2-dimethylamino-ethylamino)8-methoxy-7-oxo-7,8-dihydro-pyrido[2,3-d]pyrimidin-6-yl]-phenyl}-3-(2-fluoro-3-trifluoromethyl-phenyl)-urea]: the IC50 with A-431 [B-Raf wildtype] is > 10 µM; in test [1] it was < 5 µM.

On to `COn1c(=O)c(-c2cc(NC(=O)Nc3cc(C(F)(F)F)ccc3F)ccc2Cl)cc2cnc(NCCN(C)C)nc21` [Compound 49, 1-{4-Chloro-3-[2-(2-dimethylamino-ethylamino)-8-methoxy-7-oxo-7,8-dihydro-pyrido[2,3-d]pynmidin-6-yl]-phenyl}-3-(2-fluoro-5-trifluoromethyl-phenyl)-urea], for which the results for the IC50 (with A-431 [B-Raf wildtype]; in test [1]) were > 10 µM and < 5 µM, respectively.

Values taken from US8232283B2, “Raf inhibitors” (Forma Therapeutics, Inc., priority 2008, dated 2012).
